Measured values from ChEMBL document CHEMBL4033685, “C21-steroidal pregnane sapogenins and their derivatives as anti-inflammatory agents” (Bioorg Med Chem, 2017).
Each block holds one compound with its values, some of them ahead of it. Activity calls are given as the source filed them. No cut-off for these calls is given here.

Tests used:
[1] = target: T1, Toll-like receptor 4 (Homo sapiens, UniProt O00206); assay: Antagonist activity at TLR4 (unknown origin) expressed in human AD293 cells assessed as inhibition of LPS/ATP-stimulated TLR4/NF-kB signaling pathway at 10 uM after 16 hrs by luciferase reporter gene assay; type: cell-based
T1 sequence (O00206 whole entry): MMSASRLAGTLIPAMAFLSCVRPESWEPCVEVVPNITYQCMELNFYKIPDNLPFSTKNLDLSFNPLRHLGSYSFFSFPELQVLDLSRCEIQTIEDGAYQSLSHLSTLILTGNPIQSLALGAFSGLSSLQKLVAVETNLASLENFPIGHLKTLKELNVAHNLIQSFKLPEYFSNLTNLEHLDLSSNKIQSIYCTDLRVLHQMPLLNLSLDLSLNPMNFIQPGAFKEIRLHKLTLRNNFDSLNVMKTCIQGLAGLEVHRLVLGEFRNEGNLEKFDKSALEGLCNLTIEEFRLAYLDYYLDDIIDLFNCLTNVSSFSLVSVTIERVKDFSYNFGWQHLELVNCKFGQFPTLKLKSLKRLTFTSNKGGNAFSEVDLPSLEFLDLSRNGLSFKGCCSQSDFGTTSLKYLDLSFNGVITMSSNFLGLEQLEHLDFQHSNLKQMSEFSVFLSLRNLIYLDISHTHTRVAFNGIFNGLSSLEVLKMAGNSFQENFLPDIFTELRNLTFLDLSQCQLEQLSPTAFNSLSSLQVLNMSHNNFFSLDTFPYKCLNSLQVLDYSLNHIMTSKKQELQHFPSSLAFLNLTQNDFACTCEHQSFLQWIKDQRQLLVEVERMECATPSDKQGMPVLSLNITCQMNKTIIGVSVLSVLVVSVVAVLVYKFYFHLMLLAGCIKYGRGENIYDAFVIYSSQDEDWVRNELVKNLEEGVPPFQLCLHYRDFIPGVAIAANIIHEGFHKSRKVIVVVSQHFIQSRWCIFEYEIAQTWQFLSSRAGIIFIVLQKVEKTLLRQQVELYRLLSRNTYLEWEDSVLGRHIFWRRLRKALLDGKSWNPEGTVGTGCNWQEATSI

[2] = test system: AD293; assay: Cytotoxicity against human AD293 cells assessed as reduction in cell viability at 10 uM after 24 hrs by methylene blue dye based spectrophotometric method; settings: ad293, 24 h
[3] = species: Homo sapiens; assay: Inhibition of TNFalpha-stimulated NF-kB signaling pathway (unknown origin) expressed in human AD293 cells after 4 hrs by luciferase reporter gene assay; type: cell-based
[4] = test system: AD293; assay: Cytotoxicity against human AD293 cells assessed as reduction in cell viability after 24 hrs by methylene blue dye based spectrophotometric method; settings: ad293, 24 h
[5] = target: T1, Toll-like receptor 4; assay: Antagonist activity at TLR4 (unknown origin) expressed in human AD293 cells assessed as inhibition of LPS/ATP-stimulated TLR4/NF-kB signaling pathway after 16 hrs by luciferase reporter gene assay; type: cell-based
[6] = target: T1, Toll-like receptor 4; assay: Antagonist activity at TLR4 in human THP1 cells assessed as inhibition of LPS-stimulated RANTES mRNA level at 10 uM after 16 hrs by RT-PCR method; type: cell-based
[7] = target: T1, Toll-like receptor 4; assay: Antagonist activity at TLR4 in human THP1 cells assessed as inhibition of LPS-stimulated IL-6 mRNA level at 10 uM after 16 hrs by RT-PCR method; type: cell-based

Compound: CC(=O)[C@]1(O)CC[C@@]2(O)[C@]1(C)[C@H](OC(=O)c1ccc(O)cc1)C[C@@H]1[C@@]3(C)CC[C@H](O)CC3=CC[C@]12O
- inhibition [1]: inactive
- Activity [2]: Toxic

Compound: C[C@H]1O[C@@H]2C[C@@H]3[C@@]4(C)CC[C@H](OC(=O)/C=C/c5ccc([N+](=O)[O-])cc5)CC4=CC[C@@]3(O)[C@@]3(O)CC[C@]1(OC(=O)/C=C/c1ccccc1)[C@@]23C
- inhibition [1]: inactive
- Activity [2]: Toxic

Compound: CC(=O)O[C@H]1CC[C@@]2(C)C(=CC[C@]3(O)[C@@H]2C[C@@H](OC(=O)/C=C/c2ccccc2)[C@@]2(C)[C@]3(O)CC[C@@]2(O)C(C)=O)C1
- inhibition [1]: inactive
- Activity [2]: Toxic

Compound: CC(=O)[C@]1(OC(=O)/C=C/c2ccc([N+](=O)[O-])cc2)CC[C@@]2(O)[C@]1(C)[C@H](OC(=O)c1ccc(O)cc1)C[C@@H]1[C@@]3(C)CC[C@H](OC(=O)/C=C/c4ccc([N+](=O)[O-])cc4)CC3=CC[C@]12O
- inhibition [1]: inactive
- Activity [2]: Toxic

Compound: CC(=O)[C@]1(O)CC[C@@]2(O)[C@]1(C)[C@H](OC(=O)/C=C/c1ccccc1)C[C@@H]1[C@@]3(C)CC[C@H](OC(=O)/C=C/c4ccc([N+](=O)[O-])cc4)CC3=CC[C@]12O
- inhibition [1]: inactive
- Activity [2]: Toxic

Compound: CC(=O)[C@]1(O)CC[C@@]2(O)[C@]1(C)[C@H](OC(=O)c1ccc(O)cc1)C[C@@H]1[C@@]3(C)CCC(=O)CC3=CC[C@]12O
- inhibition [1]: inactive
- Activity [2]: Toxic

Compound: CC(=O)[C@]1(O)CC[C@@]2(O)[C@]1(C)[C@H](OC(=O)/C=C(\C)C(C)C)C[C@@H]1[C@@]3(C)CCC(OC(=O)CCl)CC3=CC[C@]12O (stereo not given in full)
- inhibition [1]: inactive
- Activity [2]: Toxic

Compound: CC(=O)[C@]1(O)CC[C@@]2(O)[C@]1(C)[C@H](OC(=O)/C=C(\C)C(C)C)C[C@@H]1[C@@]3(C)CCC(=O)CC3=CC[C@]12O
- EC10 [3]: > 10 µM
- EC10 [4]: > 10 µM
- EC50 [5]: 11.7 µM

Compound: CC(=O)[C@]1(OC(=O)c2ccc(Cl)nc2)CC[C@@]2(O)[C@]1(C)[C@H](OC(=O)c1ccc(O)cc1)C[C@@H]1[C@@]3(C)CC[C@H](OC(=O)c4ccc(Cl)nc4)CC3=CC[C@]12O
- inhibition [1]: inactive
- Activity [2]: Toxic

Compound: C[C@@H](OC(=O)c1cccnc1)[C@]1(O)CC[C@@]2(O)[C@]1(C)[C@H](OC(=O)/C=C/c1ccccc1)C[C@@H]1[C@@]3(C)CC[C@H](OC(=O)c4ccccc4)CC3=CC[C@]12O
- EC10 [3]: > 10 µM
- CC10 [4]: > 10 µM
- EC50 [5]: 11.1 µM

Compound: COc1ccc(/C=C/C(=O)O[C@H]2CC[C@@]3(C)C(=CC[C@]4(O)[C@@H]3C[C@H]3O[C@H](C)[C@]5(OC(=O)/C=C/c6ccccc6)CC[C@@]4(O)[C@]35C)C2)cc1
- inhibition [1]: inactive
- Activity [2]: Toxic

Compound: COc1ccc(/C=C/C(=O)O[C@H]2CC[C@@]3(C)C(=CC[C@]4(O)[C@@H]3C[C@@H](OC(=O)/C=C/c3ccccc3)[C@@]3(C)[C@]4(O)CC[C@@]3(O)C(C)=O)C2)cc1
- inhibition [1]: inactive
- Activity [2]: Toxic

Compound: CC(O)[C@]1(O)CC[C@@]2(O)[C@]1(C)[C@H](OC(=O)c1ccc(O)cc1)C[C@@H]1[C@@]3(C)CC[C@H](O)CC3=CC[C@]12O (stereo not given in full)
- inhibition [1]: inactive
- Activity [2]: Toxic

Compound: CC(=O)[C@]1(OC(=O)c2cccc3ccccc23)CC[C@@]2(O)[C@]1(C)[C@H](OC(=O)c1ccc(O)cc1)C[C@@H]1[C@@]3(C)CC[C@H](OC(=O)c4cccc5ccccc45)CC3=CC[C@]12O
- inhibition [1]: inactive
- Activity [2]: Toxic

Compound: C[C@H]1O[C@@H]2C[C@@H]3[C@@]4(C)CC[C@H](OC(=O)/C=C/c5ccccc5)CC4=CC[C@@]3(O)[C@@]3(O)CC[C@]1(OC(=O)/C=C/c1ccccc1)[C@@]23C
- inhibition [1]: inactive
- Activity [2]: Toxic

Compound: COc1cc(/C=C/C(=O)O[C@H]2CC[C@@]3(C)C(=CC[C@]4(O)[C@@H]3C[C@@H](OC(=O)/C=C/c3ccccc3)[C@@]3(C)[C@]4(O)CC[C@@]3(O)C(C)=O)C2)cc(OC)c1OC
- inhibition [1]: inactive
- Activity [2]: Toxic

Compound: C[C@@H](OC(=O)c1cccnc1)[C@]1(O)CC[C@@]2(O)[C@]1(C)[C@H](OC(=O)/C=C/c1ccccc1)C[C@@H]1[C@@]3(C)C=CC(=O)C=C3C=C[C@]12O
- EC10 [3]: > 10 µM
- CC10 [4]: > 10 µM
- EC50 [5]: 6.35 µM

Compound: CC(=O)[C@]1(O)CC[C@@]2(O)[C@]1(C)[C@H](OC(=O)c1ccccc1)C[C@@H]1[C@@]3(C)CC[C@H](O)CC3=CC[C@]12O
- inhibition [6]: inactive
- inhibition [7]: inactive

Compound: CC(=O)[C@]1(OC(=O)c2ccccc2I)CC[C@@]2(O)[C@]1(C)[C@H](OC(=O)c1ccc(O)cc1)C[C@@H]1[C@@]3(C)CC[C@H](OC(=O)c4ccccc4I)CC3=CC[C@]12O
- inhibition [6]: inactive
- inhibition [1]: inactive
- Activity [2]: Toxic
- inhibition [7]: inactive

Compound: CC(=O)[C@]1(O)CC[C@@]2(O)[C@]1(C)[C@H](OC(=O)/C=C/c1ccccc1)C[C@@H]1[C@@]3(C)CC[C@H](O)CC3=CC[C@]12O
- inhibition [1]: inactive
- Activity [2]: Toxic

Compound: CC(=O)O[C@H]1CC[C@@]2(C)C(=CC[C@]3(O)[C@@H]2C[C@@H](OC(=O)c2ccc(O)cc2)[C@@]2(C)[C@]3(O)CC[C@@]2(O)C(C)=O)C1
- inhibition [6]: inactive
- inhibition [7]: inactive

Compound: COc1cc(/C=C/C(=O)O[C@H]2CC[C@@]3(C)C(=CC[C@]4(O)[C@@H]3C[C@@H](OC(=O)c3ccc(O)cc3)[C@@]3(C)[C@]4(O)CC[C@@]3(OC(=O)/C=C/c3cc(OC)c(OC)c(OC)c3)C(C)=O)C2)cc(OC)c1OC
- inhibition [1]: inactive
- Activity [2]: Toxic

Compound: CC(=O)[C@]1(OS(C)(=O)=O)CC[C@@]2(O)[C@]1(C)[C@H](OC(=O)c1ccc(O)cc1)C[C@@H]1[C@@]3(C)CC[C@H](OS(C)(=O)=O)CC3=CC[C@]12O
- inhibition [1]: inactive
- Activity [2]: Toxic

Compound: CC(=O)[C@]1(O)CC[C@@]2(O)[C@]1(C)[C@H](OC(=O)/C=C(\C)C(C)C)C[C@@H]1[C@@]3(C)CC[C@H](OC(=O)c4ccc(Cl)nc4)CC3=CC[C@]12O
- inhibition [6]: inactive
- inhibition [7]: inactive

Compound: CC(=O)[C@]1(O)CC[C@@]2(O)[C@]1(C)[C@H](OC(=O)/C=C(\C)C(C)C)C[C@@H]1[C@@]3(C)CC[C@H](O)CC3=CC[C@]12O [CAUDATIN]
- inhibition [1]: inactive
- Activity [2]: Toxic

- inhibition [1]: inactive
Compound: CC(=O)[C@]1(O)CC[C@]23OC(C)(C)O[C@]24CC=C2C[C@@H](O)CC[C@]2(C)[C@H]4C[C@@H](OC(=O)c2ccc(O)cc2)[C@@]31C
- Activity [2]: Toxic

Compound: C[C@H]1O[C@@H]2C[C@@H]3[C@@]4(C)CC[C@H](O)CC4=CC[C@@]3(O)[C@@]3(O)CC[C@]1(OC(=O)/C=C/c1ccccc1)[C@@]23C
- inhibition [1]: inactive
- Activity [2]: Toxic

Compound: CC(=O)[C@]1(O)CC[C@@]2(O)[C@]1(C)[C@H](OC(=O)c1ccc(O)cc1)C[C@@H]1[C@@]3(C)CC[C@H](Br)CC3=CC[C@]12O
- inhibition [1]: inactive
- Activity [2]: Toxic

Compound: CC(=O)[C@]1(OC(=O)c2ccc([N+](=O)[O-])cc2)CC[C@@]2(O)[C@]1(C)[C@H](OC(=O)c1ccc(O)cc1)C[C@@H]1[C@@]3(C)CC[C@H](OC(=O)c4ccc([N+](=O)[O-])cc4)CC3=CC[C@]12O
- inhibition [1]: inactive
- Activity [2]: Toxic

Compound: CC(=O)[C@]1(O)CC[C@@]2(O)[C@]1(C)[C@H](OC(=O)/C=C(\C)C(C)C)C[C@@H]1[C@@]3(C)CC[C@H](Cl)CC3=CC[C@]12O
- EC10 [3]: > 10 µM
- CC10 [4]: > 10 µM
- EC50 [5]: 12 µM

Compound: COc1cc(/C=C/C(=O)O[C@H]2CC[C@@]3(C)C(=CC[C@]4(O)[C@@H]3C[C@H]3O[C@H](C)[C@]5(OC(=O)/C=C/c6ccccc6)CC[C@@]4(O)[C@]35C)C2)cc(OC)c1OC
- inhibition [1]: inactive
- Activity [2]: Toxic

Compound: CC(=O)[C@]1(O)CC[C@@]2(O)[C@]1(C)[C@H](OC(=O)/C=C(\C)C(C)C)C[C@@H]1[C@@]3(C)CC[C@H](OC(=O)/C=C/c4ccccc4)CC3=CC[C@]12O
- inhibition [6]: inactive
- inhibition [7]: inactive

Compound: C[C@@H](OC(=O)c1cccnc1)[C@]1(O)CC[C@@]2(O)[C@]1(C)[C@H](OC(=O)/C=C/c1ccccc1)C[C@@H]1[C@@]3(C)CC[C@H](OC(=O)/C=C/c4ccc([N+](=O)[O-])cc4)CC3=CC[C@]12O
- EC10 [3]: > 10 µM
- CC10 [4]: > 10 µM
- EC50 [5]: 14 µM

Compound: CCC(=O)O[C@H]1CC[C@@]2(C)C(=CC[C@]3(O)[C@@H]2C[C@@H](OC(=O)c2ccc(O)cc2)[C@@]2(C)[C@]3(O)CC[C@@]2(OC(=O)CC)C(C)=O)C1
- inhibition [1]: inactive
- Activity [2]: Toxic
